Data taken from patent US9120779B2, “Inhibitors of HCV NS5A” (PRESIDIO PHARMACEUTICALS, INC., priority 2008, dated 2015).

What follows are molecules tested on HCV genotype 1b replicon in Huh 7 cells (assay: HCV replicon assay (luciferase readout, 1b_Huh-Luc/Neo-ET cell line)). Conditions: Hepatitis C virus, Huh-7, 72 h, read-out: Inhibition of HCV genotype 1b, Table 5, 72 h incubation.
Type: cell-based
Method in brief: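 Huh 7 cells carrying a bicistronic genotype 1b luciferase replicon treated with compound in triplicate for 72 h. Replicon level read as luciferase activity (Bright-Glo), expressed as % of control; EC50 from a sigmoidal Hill-slope fit, repeated several times.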
In the case of `CCNC(=O)N[C@H](C(=O)N1CCC[C@H]1c1ncc(-c2ccc(C34CCC(c5cnc([C@@H]6CCCN6C(=O)[C@@H](NC(=O)OC)C(C)C)[nH]5)(CC3)CC4)cc2)[nH]1)C(C)C` [compound 2096], the EC50 is reported as < 1 nM. With `COC(=O)N[C@H](C(=O)N[C@@H](C)c1ncc(C23CCC(c4ccc(-c5cnc([C@@H]6CCCN6C(=O)[C@@H](NC(=O)OC)C(C)C)[nH]5)cc4)(CC2)CC3)[nH]1)C(C)C` [compound 2097] the EC50 was < 1 nM. With `COC(=O)N[C@@H](C(=O)N[C@@H](C)c1ncc(C23CCC(c4ccc(-c5cnc([C@@H]6CCCN6C(=O)[C@H](NC(=O)OC)c6ccccc6)[nH]5)cc4)(CC2)CC3)[nH]1)c1ccccc1` [compound 2098] the EC50 was < 1 nM. With `CNC(=O)N[C@H](C(=O)N1CCC[C@H]1c1ncc(C23CCC(c4ccc(-c5cnc([C@@H]6CCCN6C(=O)[C@@H](NC(=O)OC)C(C)C)[nH]5)cc4)(CC2)CC3)[nH]1)C(C)C` [compound 2099] the EC50 was < 1 nM. With `CCNC(=O)N[C@H](C(=O)N1CCC[C@H]1c1ncc(C23CCC(c4ccc(-c5cnc([C@@H]6CCCN6C(=O)[C@@H](NC(=O)OC)C(C)C)[nH]5)cc4)(CC2)CC3)[nH]1)C(C)C` [compound 2100] the EC50 was < 1 nM. For `COC(=O)N[C@H](C(=O)N1CCC[C@H]1c1ncc(C23CCC(c4ccc(-c5cnc([C@@H]6CCCN6C(=O)[C@H](NC(=O)N6CCC(O)CC6)c6ccccc6)[nH]5)cc4)(CC2)CC3)[nH]1)C(C)C` [compound 2101], the EC50 was < 1 nM. With `CNC(=O)N[C@@H](C(=O)N1CCC[C@H]1c1ncc(-c2ccc(C34CCC(c5cnc([C@@H]6CCCN6C(=O)[C@@H](NC(=O)OC)C(C)C)[nH]5)(CC3)CC4)cc2)[nH]1)c1ccccc1` [compound 2102] the EC50 was < 1 nM. In the case of `CCNC(=O)N[C@@H](C(=O)N1CCC[C@H]1c1ncc(-c2ccc(C34CCC(c5cnc([C@@H]6CCCN6C(=O)[C@@H](NC(=O)OC)C(C)C)[nH]5)(CC3)CC4)cc2)[nH]1)c1ccccc1` [compound 2103], the EC50 is reported as < 1 nM. With `COC(=O)N[C@H](C(=O)N1CCC[C@H]1c1ncc(-c2ccc(C34CCC(c5cnc([C@H](C)NC(=O)[C@H](NC(=O)OC)c6ccccc6)[nH]5)(CC3)CC4)cc2)[nH]1)C(C)C` [compound 2104] the EC50 was < 1 nM. For `COC(=O)NC(C(=O)N1CCC[C@H]1c1ncc(-c2ccc(C34CCC(c5cnc([C@H](C)NC(=O)[C@@H](NC(=O)OC)C(C)C)[nH]5)(CC3)CC4)cc2)[nH]1)c1ccccc1` (stereo partly drawn) [compound 2105], the EC50 was < 1 nM. With `COC(=O)N[C@H](C(=O)N1CCC[C@H]1c1ncc(-c2ccc(C34CCC(c5cnc([C@@H]6CCCN6C(=O)[C@@H](NC(=O)OC)C6CCOCC6)[nH]5)(CC3)CC4)cc2)[nH]1)C(C)C` [compound 2106] the EC50 was < 1 nM. For `COC(=O)N[C@H](C(=O)N1CCC[C@H]1c1ncc(-c2ccc(C34CCC(c5cnc([C@@H]6CCCN6C(=O)[C@@H](NC(=O)OC6CCOCC6)c6ccccc6)[nH]5)(CC3)CC4)cc2)[nH]1)C(C)C` [compound 2107], the EC50 was < 1 nM. `COC(=O)N[C@H](C(=O)N1CCC[C@H]1c1ncc(-c2ccc(C34CCC(c5cnc([C@@H]6CCCN6C(=O)[C@H](NC(=O)OC6CCOCC6)c6ccccc6)[nH]5)(CC3)CC4)cc2)[nH]1)C(C)C` [compound 2108] was tested, and the EC50 was < 1 nM.

Same assay, conditions: Hepatitis C virus, Huh-7, 72 h, read-out: Inhibition of HCV genotype 1b, Table 7, 72 h incubation
`COC(=O)N[C@@H](C(=O)N1CCC[C@H]1c1cnc(N2CCN(c3ccc(-c4cnc([C@@H]5CCCN5C(=O)[C@H](NC(=O)OC)c5ccccc5)[nH]4)cc3)C(=O)C2)[nH]1)c1ccccc1` [compound 2113] was tested, and the EC50 was < 1 nM.

Same assay, conditions: Hepatitis C virus, Huh-7, 72 h, read-out: Inhibition of HCV genotype 1b, Table 8, 72 h incubation
For `COC(=O)N[C@H](C(=O)N1CCC[C@H]1c1ncc(C23CCC(c4ccc5c(c4)nc([C@@H]4CCCN4C(=O)[C@@H](NC(=O)OC)C(C)C)n5C)(CC2)CC3)[nH]1)C(C)C` [compound 2116], the EC50 was 10 to 999 nM.
